Values of other authors as cited in patent US10722545B2, “Compound and method for treatment of movement disorders” (priority 2018, dated 2020).

Tests used:
mice = conditions: oral administration
[1] = cyclic voltammetry and fenton reaction-based system
[2] = tested on: rat cortical neuron cultures; conditions: for glutamate toxicity: isolated or synthetic cannabinoid; for NMDA, AMPA and kainate receptor mediated neurotoxicity: rat cortical neuron cultures, not affected by CB receptor antagonist
neurons = conditions: neuronal cultures
[3] = tested on: mutant hamster model of dystonia

Row | Compound | inhibition of phenyl-p-benzoquinone-induced writhing (mice) | antioxidant activity [1] | glutamate toxicity [2] | NMDA, AMPA and kainate receptor mediated neurotoxicity [2] | protective capacity against glutamate toxicity, head to head with other antioxidants ([2]; compared with alpha-tocopherol and ascorbate) | hydroperoxide toxicity in neurons (neurons) | antidystonic effects [3]
1 | CCCCCc1cc(O)c2c(c1)OC(C)(C)[C@@H]1CCC(C)=C[C@@H]21 (relative stereo) [THC, (-)-Δ9-trans-tetrahydrocannabinol] | least effective | potent antioxidants | prevented to some extent | reduced | – | – | –
2 | C=C(C)[C@@H]1CCC(C)=C[C@H]1c1c(O)cc(CCCCC)cc1O [CBD, cannabidiol] | most effective | potent antioxidants | prevented to some extent | reduced | superior to both alpha-tocopherol and ascorbate | reduce hydroperoxide toxicity | –
3 | CCCCCc1cc(O)c2c(c1)OC(C)(C)c1ccc(C)cc1-2 [CBN, cannabinol] | least effective | – | – | – | – | – | –
4 | Cc1c(C(=O)c2cccc3ccccc23)c2cccc3c2n1[C@H](CN1CCOCC1)CO3 [WIN55,212-2] | – | – | – | – | – | – | produces antidystonic effects
